From patent US4294832A, “Tetrahydroisoquinoline compounds and a pharmaceutical composition thereof” (Tanabe Seiyaku Co., Ltd., priority 1979, dated 1981)
“And” between values parts separate entries of the source, which are not always exact repeats. Equal values may be shown once. Where a name gives a salt, the structure may show the parent alone. Read-outs that look alike come from different tables or passages of the source.

Columns and labels:
[1] = molecular target: T1, angiotensin-converting enzyme (ACE) isolated from pig's renal cortex (Sus scrofa, UniProt F1RRW5); assay: ACE-inhibitory activity in vitro (histidyl-leucine released from hippuryl-histidyl-leucine); format: biochemical
T1 construct: isolated from pig's renal cortex; from tissue; host or cells: pig renal cortex
T1 sequence (F1RRW5 34-1309): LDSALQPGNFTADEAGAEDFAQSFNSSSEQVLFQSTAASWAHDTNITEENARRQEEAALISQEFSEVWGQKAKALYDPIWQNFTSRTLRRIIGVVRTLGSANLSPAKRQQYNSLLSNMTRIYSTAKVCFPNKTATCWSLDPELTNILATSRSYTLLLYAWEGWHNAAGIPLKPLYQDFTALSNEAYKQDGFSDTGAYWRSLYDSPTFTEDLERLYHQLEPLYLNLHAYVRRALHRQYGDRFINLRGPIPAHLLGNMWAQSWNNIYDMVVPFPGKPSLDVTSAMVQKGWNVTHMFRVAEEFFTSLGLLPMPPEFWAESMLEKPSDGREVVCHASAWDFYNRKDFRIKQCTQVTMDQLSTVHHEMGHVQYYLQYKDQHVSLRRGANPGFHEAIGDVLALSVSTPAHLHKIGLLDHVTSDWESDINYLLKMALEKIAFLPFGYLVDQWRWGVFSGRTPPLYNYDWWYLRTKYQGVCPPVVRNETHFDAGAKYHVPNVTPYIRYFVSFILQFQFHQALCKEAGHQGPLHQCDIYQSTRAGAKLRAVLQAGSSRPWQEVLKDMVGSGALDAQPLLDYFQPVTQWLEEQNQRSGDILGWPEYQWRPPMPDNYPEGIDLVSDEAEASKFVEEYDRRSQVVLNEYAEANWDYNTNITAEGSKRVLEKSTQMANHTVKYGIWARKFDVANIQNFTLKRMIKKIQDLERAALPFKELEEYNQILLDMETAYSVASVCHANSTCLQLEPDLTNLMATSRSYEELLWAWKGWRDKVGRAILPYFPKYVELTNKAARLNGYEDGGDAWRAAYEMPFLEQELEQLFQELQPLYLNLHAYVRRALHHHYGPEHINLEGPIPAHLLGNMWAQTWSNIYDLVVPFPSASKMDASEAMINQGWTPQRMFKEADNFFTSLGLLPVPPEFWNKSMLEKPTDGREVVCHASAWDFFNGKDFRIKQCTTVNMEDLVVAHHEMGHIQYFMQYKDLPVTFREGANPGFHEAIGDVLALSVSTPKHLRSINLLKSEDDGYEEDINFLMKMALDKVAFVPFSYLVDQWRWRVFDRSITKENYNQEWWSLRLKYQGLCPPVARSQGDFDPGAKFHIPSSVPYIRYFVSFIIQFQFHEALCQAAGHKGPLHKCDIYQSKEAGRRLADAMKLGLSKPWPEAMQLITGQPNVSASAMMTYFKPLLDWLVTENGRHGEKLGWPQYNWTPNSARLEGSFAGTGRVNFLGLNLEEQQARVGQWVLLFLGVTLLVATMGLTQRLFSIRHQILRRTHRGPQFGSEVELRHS
Experimental: ACE-inhibitory activity in vitro:
50 μl of a solution containing 0.01 mole/liter of hippuryl-histidyl-leucine (substrate) and 0-100 μl of a test compound solution were added to 300 μl of a 0.2M trishydrochloric acid buffer solution containing 0.2 mole/liter of sodium chloride. The total volume of said mixture was adjusted to 450 μl with water. Then, 50 μl of angiotensin -converting enzyme (ACE) isolated from pig's renal cortex were added to the mixture, and the mixture was allowed to stand at 37° C. for 20 minutes. The amount of histidyl-leucine produced from the substrate by the action of ACE was assayed microbiologically by the use of Leuconostoc mesenteroides P-60, and the ACE-inhibitory activity of the test compound was estimated therefrom.
*I50 = a dose required to induce 50% inhibition of the ACE activity

[2] = system: spontaneously hypertensive rats (SHR); assay: Hypotensive activity in SHR (systolic blood pressure, tail plethysmographic technique); format: in vivo, rat; details: 50 mg/kg orally; for Decrease in blood pressure (-Δ mm Hg): SHR fasted overnight, systolic; for Duration of action: hypotensive action, SHR
Experimental: Hypotensive activity in SHR:
A test compound (dose: 50 mg/kg) suspended in an aqueous carboxymethylcellulose solution was administered orally to spontaneously hypertensive rats (SHR) fasted overnight. The systolic blood pressure of the rats was measured by the tail plethysmographic technique (The Journal of Laboratory and Clinical Medicine 78(1971), page 957). The hypotensive activity of the test compound was estimated from the decreased level of blood pressure.

[3] = system: angiotensin-converting enzyme (ACE); assay: ACE-inhibitory activity in vivo (pressor response to angiotensin I in anesthetized normotensive rats); design: species or system rat; details: 0.1 mg/kg i.v.; for Duration of activity: ACE inhibition in vivo; for ACE-inhibitory activity in vivo: percentage inhibition of ACE activity, angiotensin I 300 ng/kg i.v.
Experimental: ACE-inhibitory activity in vivo:
Normotensive rats weighing 300-400 g were anesthetized with urethane (1.5 g/kg, s.c.), and angiotensin I (300 ng/kg) was injected into the femoral vein of the rats. The pressor response to angiotensin I was measured with a pressure transducer connected to the carotid artery. Then, a test compound was injected intravenously thereto at a dose of 0.1 mg/kg, and angiotensin I (300 ng/kg) was further injected intravenously at intervals. The ACE-inhibitory activity of the test compound was estimated from the pressur responses to angiotensin I which were obtained before and after intravenous injection of the test compound.
*percentage inhibition of ACE activity in vivo

[4] = dose required to induce 50% inhibition of the ACE activity, pig renal cortex ACE, 37° C., 20 minutes, read-out: ACE-inhibitory activity in vitro I50

| SMILES | IC50 [1, 4] | Duration of activity [3] | ACE-inhibitory activity in vivo [3] | further results |
| --- | --- | --- | --- | --- |
| C=CCN(CCC(=O)O)C(=O)N1Cc2ccccc2C[C@H]1C(=O)O [3(S)-2-[N-allyl-N-(2-carboxyethyl)carbamoyl]-1,2,3,4-tetrahydroisoquinoline-3-carboxylic acid di-L-lysine salt] | 0.14 µM |  |  |  |
| O=C(O)CCN(C(=O)N1Cc2ccccc2C[C@H]1C(=O)O)C1CC1 [3(S)-2-[N-cyclopropyl-N-(2-carboxyethyl)-carbamoyl]-1,2,3,4-tetrahydroisoquinoline-3-carboxylic acid di-dicyclohexylamine salt] | 0.14 µM |  |  |  |
| CCN(CCC(=O)O)C(=O)N1Cc2ccccc2C[C@H]1C(=O)O [3(S)-2-[N-ethyl-N-2-carboxyethyl)carbamoyl]-1,2,3,4-tetrahydroisoquinoline-3-carboxylic acid di-sodium salt] | 0.021 µM |  |  |  |
| CCN(CCC(=O)O)C(=O)N1Cc2ccccc2C[C@H]1C(=O)O [3(S)-2-[N-ethyl-N-(2-carboxyethyl)carbamoyl]-1,2,3,4-tetrahydroisoquinoline-3-carboxylic acid calcium salt] | 0.011 µM |  |  | IC50 ([1]; in vitro, ACE isolated from pig's kidney, read-out: 50% inhibition of the activity of the enzyme at a concentration of): ~0.011 µM |
| CCOC(=O)CCN(CC)C(=O)N1Cc2ccccc2C[C@H]1C(=O)O [3(S)-2-[N-ethyl-N-(2-ethoxycarbonylethyl)carbamoyl]-1,2,3,4-tetrahydroisoquinoline-3-carboxylic acid 1/2 calcium salt] |  |  |  | Decrease in blood pressure (-Δ mm Hg) [2]: 26 mm Hg; Duration of action [2]: > 6 h |
| CCOC(=O)CCN(CC)C(=O)N1Cc2ccccc2C[C@H]1C(=O)O [3(S)-2-[N-ethyl-N-(2-ethoxycarbonylethyl)carbamoyl]-1,2,3,4-tetrahydroisoquinoline-3-carboxylic acid L-lysine salt] |  | > 60 min | > 60% |  |
| CCCCOC(=O)CCN(CC)C(=O)N1Cc2ccccc2C[C@H]1C(=O)O [3(S)-2-[N-ethyl-N-(2-n-butoxycarbonylethyl)carbamoyl]-1,2,3,4-tetrahydroisoquinoline-3-carboxylic acid L-lysine salt] |  | > 60 min |  | ACE-inhibitory activity in vivo ([3]; 0.1 mg/kg): 80% and > 60% |
| CCOC(=O)CCN(CC)C(=O)N1Cc2ccccc2C[C@H]1C(=O)O.NCCCC[C@H](N)C(=O)O [3(S)-2-[N-ethyl-N-(2-n-ethoxycarbonylethyl)carbamoyl]-1,2,3,4-tetrahydroisoquinoline-3-carboxyleic acid L-lysine salt] |  |  |  | Decrease in blood pressure (-Δ mm Hg) [2]: 25 mm Hg; Duration of action [2]: > 6 h |
| CC(C)N(CCC(=O)O)C(=O)N1Cc2ccccc2C[C@H]1C(=O)O [3(S)-2-[N-isopropyl-N-(2-carboxyethyl)carbamonyl]-1,2,3,4-tetrahydroisoquinoline-3-carboxylic acid di-L-lysine salt] | 0.029 µM |  |  |  |
| CC(C)N(CCC(=O)O)C(=O)N1Cc2ccccc2C[C@H]1C(=O)O [3(S)-2-[N-isopropyl-N-(2-carboxyethyl)carbamoyl]-1,2,3,4-tetrahydroisoquinoline-3-carboxylic acid di-dicyclohexylamine salt] |  | > 60 min | > 60% |  |
| CCOC(=O)CCN(C(=O)N1Cc2ccccc2C[C@H]1C(=O)O)C(C)C [3(S)-2-[N-isopropyl-N-(2-ethoxycarbonylethyl)carbamoyl]-1,2,3,4-tetrahydroisoquinoline-3-carboxylic acid L-lysine salt] |  | > 60 min | > 60% |  |
| COC(=O)CCN(C(=O)N1Cc2ccccc2C[C@H]1C(=O)O)C(C)C [3(S)-2-[N-isopropyl-N-(2-methoxycarbonylethyl)carbamoyl]-1,2,3,4-tetrahydroisoquinoline-3-carboxylic acid L-lysine salt] |  |  | 40 - 60% | Duration of activity ([3]; 0.1 mg/kg): 30 to 60 min; Decrease in blood pressure (-Δ mm Hg) [2]: 36 mm Hg; Duration of action [2]: > 6 h |
| COC(=O)CCN(C(=O)N1Cc2ccccc2C[C@H]1C(=O)O)C(C)C [3(S)-2-[N-isopropyl-N-(2-methoxycarbonylethyl)carbamoyl]-1,2,3,4-tetrahydroisoquinoline-3-carboxylic acid sodium salt] |  |  |  | Duration of activity ([3]; sodium salt, 0.1 mg/kg): > 60 min |
| CCCCOC(=O)CCN(C(=O)N1Cc2ccccc2C[C@H]1C(=O)O)C(C)C [3(S)-2-[N-isopropyl-N-(2-n-butoxycarbonylethyl)carbamoyl]-1,2,3,4-tetrahydroisoquinoline-3-carboxylic acid L-lysine salt] |  | > 60 min | > 60% |  |
| CN(CCC(=O)O)C(=O)N1Cc2ccccc2C[C@H]1C(=O)O [3(S)-2-[N-methyl-N-(2-carboxyethyl)carbamoyl]-1,2,3,4-tetrahydroisoquinoline-3-carboxylic acid 2 dicyclohexylamine salt] | 0.61 µM |  |  |  |
| CCOC(=O)CCN(C)C(=O)N1Cc2ccccc2C[C@H]1C(=O)O [3(S)-2-[N-methyl-N-(2-ethoxycarbonylethyl)carbamoyl]-1,2,3,4-tetrahydroisoquinoline-3-carboxylic acid L-lysine salt] |  | > 60 min | 40 - 60% |  |
| CCCN(CCC(=O)O)C(=O)N1Cc2ccccc2C[C@H]1C(=O)O [3(S)-2-[N-n-propyl-N-(2-carboxyethyl)carbamoyl]-1,2,3,4-tetrahydroisoquinoline-3-carboxylic acid 2 dicyclohexylamine salt] | 0.55 µM |  |  |  |
| C#CCN(CCC(=O)O)C(=O)N1Cc2ccccc2C[C@H]1C(=O)O [3(S)-2-[N-propargyl-N -(2-carboxyethyl)carbamoyl]-1,2,3,4-tetrahydroisoquinoline-3-carboxylic acid di-L-lysine salt] | 0.035 µM |  |  |  |
